Where “and” joins values, the source holds several entries; their conditions need not be identical. Equal values may be shown once.

For this test, the target named is T1, human GPR40 (Homo sapiens, UniProt O14842).
T1 construct: expressed in transfected cells; host or cells: HEK cells stably expressing the aequorin reporter
T1 sequence (O14842 whole entry): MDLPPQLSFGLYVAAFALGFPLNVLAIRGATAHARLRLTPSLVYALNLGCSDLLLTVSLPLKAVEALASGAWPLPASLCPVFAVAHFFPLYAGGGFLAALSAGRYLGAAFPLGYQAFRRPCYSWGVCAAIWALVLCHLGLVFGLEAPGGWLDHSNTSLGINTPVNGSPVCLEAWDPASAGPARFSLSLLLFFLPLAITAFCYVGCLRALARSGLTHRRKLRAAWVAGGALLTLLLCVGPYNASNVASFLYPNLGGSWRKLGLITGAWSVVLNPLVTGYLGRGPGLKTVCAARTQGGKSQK
As to the kind of experiment: Inositol Phosphate Turnover (IP1) Assay 2. The format is cell-based. The following applies: HEK cells stably expressing human GPR40; 15,000 cells per well; compound acoustically transferred; CisBio IP-One kit. The procedure:
Human and mouse GPR40 stable cell-lines were generated in CHO cells stably expressing NFAT BLA (Beta-lactamase). A human GPR40 stable cell-line was generated in HEK cells stably expressing the aequorin expressing reporter. The expression plasmids were transfected using lipofectamine (Life Technologies) following manufacturer's instructions. Stable cell-lines were generated following drug selection.
Inositol Phosphate Turnover (IP1) Assay 2:
The assay was performed in 384-well format. HEK cells stably expressing human GPR40 were plated at 15,000 cells per well in growth medium (DMEM/10% fetal calf serum). Cell plates were then incubated 16 hours at 37 degrees in a 5% CO2 incubator.
Measurement of Inositol Phosphate Turnover (IP1) was performed using the CisBio IP-One kit (Part number 62IPAPEB). After the 16 hour incubation, the cells were washed with HEPES buffer and 10 ul of stimulation buffer (prepared as described in the kit) was added to each well. In a separate plate, compounds were diluted in DMSO (400-fold over the final concentration in the assay well) and 25 nl was acoustically transferred to the appropriate well in the assay cell plate. The plates were then incubated for 60 minutes at 37 degrees. 10 ul of detection buffer (also prepared as described in the IP-One kit) was added to each well and the plates were incubated for 60 minutes in the dark. The plates were then read in a Perkin Elmer EnVision or equivalent reader able to measure FRET. Fluorescent ratio of emission at 665 and 620 nm was then converted to IP1 concentration by back calculating from an IP1 standard curve prepared at the time of the assay.
The EC50 is the midpoint of the concentration-response curve. The molecule `COc1cc(-c2ccc(C3CCc4ccc([C@H](C5CC5)[C@H](C)C(=O)O)cc4O3)cc2CN2CCOCC2(C)C)c(F)cn1` (mixture of isomers) [Example 59] had an EC50 of 0.98 nM. Next, `COc1cc(-c2ccc(C3CCc4ccc([C@H](C5CC5)[C@H](C)C(=O)O)cc4O3)cc2CN2CC3CC2CO3)c(F)cn1` (some centres unmarked) [Example 43]: 2.1 nM; `COc1cc(-c2ccc(C3CCc4ccc([C@H](C5CC5)[C@H](C)C(=O)O)cc4O3)cc2CN2CCC[C@H]2C)c(F)cn1` (some centres unmarked) [Example 50]: 1.3 nM; `COc1cc(-c2ccc(C3CCc4ccc([C@H](C5CC5)[C@H](C)C(=O)O)cc4O3)cc2CN2CCC3(CCO3)C2)c(F)cn1` (some centres unmarked) [Example 54]: 13 nM. Next, `COc1cc(-c2ccc(C3CCc4ccc([C@H](C5CC5)[C@H](C)C(=O)O)cc4O3)cc2CN2CC[C@H](F)C2)c(F)cn1` (single isomer, unassigned) [Example 25]: 2.3 nM. Next, `COc1cc(-c2ccc([C@H]3CCc4ccc([C@H](C5CC5)[C@H](C)C(=O)O)cc4O3)cc2CN2[C@H](C)CC[C@H]2C)c(F)cn1` [Example 147]: 0.7 nM; `COc1cc(-c2ccc(C3CCc4ccc([C@H](C5CC5)[C@H](C)C(=O)O)cc4O3)cc2CN(C2CC2)C2CC2)c(F)cn1` (mixture of isomers) [Example 52]: 0.35 nM.

In turn, `COc1cc(-c2ccc(C3CCc4ccc([C@H](C5CC5)[C@H](C)C(=O)O)cc4O3)cc2CN2CCCC2)c(C#N)cn1` (mixture of isomers) [Example 78, (2S,3R)-3-(2-(4-(5-cyano-2-methoxypyridin-4-yl)-3-(pyrrolidin-1-ylmethyl)phenyl)chroman-7-yl)-3-cyclopropyl-2-methylpropanoic acid] had an EC50 of 8 nM. Next, `COc1cc(-c2ccc(C3CCc4ccc([C@H](C5CC5)[C@H](C)C(=O)O)cc4O3)cc2CN2CC[C@H](O)C2)c(F)cn1` (some centres unmarked) [Example 7]: 118 nM; `COc1cc(-c2ccc(C3CCc4ccc([C@H](C5CC5)[C@H](C)C(=O)O)cc4O3)cc2CN2CCN(C)CC2)c(F)cn1` (mixture of isomers) [Example 13, (2S,3R)-3-cyclopropyl-3-(2-(4-(5-fluoro-2-methoxypyridin-4-yl)-3-(4-methylpiperazin-1-yl)methylphenyl)chroman-7-yl)-2-methylpropanoic acid]: 210 nM; `CCc1ccc(F)c(-c2ccc(C3CCc4ccc([C@H](C5CC5)[C@H](C)C(=O)O)cc4O3)cc2CN2CCCC2)c1` (mixture of isomers) [Example 75]: 17 nM.

In the case of `COc1cc(-c2ccc(C3CCc4ccc([C@H](C5CC5)[C@H](C)C(=O)O)cc4O3)cc2CN2CCC(F)(F)C2)c(F)cn1` (mixture of isomers) [Example 17], the EC50 came to 0.7 nM. The figure for `COc1cc(-c2ccc([C@H]3CCc4ccc([C@H](C5CC5)[C@H](C)C(=O)O)cc4O3)cc2CN2CCCC[C@H]2C)c(F)cn1` [Example 167] is 2.2 nM; for `COC[C@@H]1CCCN1Cc1cc(C2CCc3ccc([C@H](C4CC4)[C@H](C)C(=O)O)cc3O2)ccc1-c1cc(OC)ncc1F` (some centres unmarked) [Example 36] it is 2.1 nM. In turn, `COC[C@H]1CC[C@H](COC)N1Cc1cc(C2CCc3ccc([C@H](C4CC4)[C@H](C)C(=O)O)cc3O2)ccc1-c1cc(OC)ncc1F` (some centres unmarked) [Example 65] displayed an EC50 of 2 nM. Next, `COc1cc(-c2ccc([C@@H]3CCc4ccc([C@H](C5CC5)[C@H](C)C(=O)O)cc4O3)cc2CN2CCCC[C@H]2C)c(F)cn1` [Example 153]: 1.1 nM; `COc1cc(-c2ccc(C3CCc4ccc([C@H](C5CC5)[C@H](C)C(=O)O)cc4O3)cc2CN2CC[C@@H](C(F)(F)F)C2)c(F)cn1` (single isomer, unassigned) [Example 28]: 1.4 nM; `COc1cc(-c2ccc(C3CCc4ccc([C@H](C5CC5)[C@H](C)C(=O)O)cc4O3)cc2CN(C)C)c(F)cn1` (single isomer, unassigned) [Example 1a]: 2.3 nM.

With `COc1cc(-c2ccc(C3CCc4ccc([C@H](C5CC5)[C@H](C)C(=O)O)cc4O3)cc2CN2CCOC[C@@H]2C)c(F)cn1` (some centres unmarked) [Example 51], the EC50 turned out to be 1 nM.

For `COc1cc(-c2ccc([C@H]3CCc4ccc([C@H](C5CC5)[C@H](C)C(=O)O)cc4O3)cc2CN2CCCCC23CC3)c(F)cn1` [Example 144], the EC50 stood at 0.3 nM. This EC50 lies about 3.3-fold lower than the previous one.

For `COc1cc(-c2ccc([C@H]3CCc4ccc([C@H](C5CC5)[C@H](C)C(=O)O)cc4O3)cc2CN2CCCC2(C)C)c(F)cn1` [Example 146], the EC50 was determined as 1.8 nM. This EC50 is about 6-fold higher than that of the molecule before. The molecule `COc1cc(-c2ccc(C3CCc4ccc([C@H](C5CC5)[C@H](C)C(=O)O)cc4O3)cc2CN2CCOCC2)c(F)cn1` (single isomer, unassigned) [Example 11b] came in with an EC50 of 2.4 nM. The figure for `COc1cc(-c2ccc(C3CCc4ccc([C@H](C5CC5)[C@H](C)C(=O)O)cc4O3)cc2CN2C3CCC2CC(OC)C3)c(F)cn1` (some centres unmarked) [Example 37] is 4.7 nM.

In the case of `COc1cc(-c2ccc([C@H]3CCc4ccc([C@H](C5CC5)[C@H](C)C(=O)O)cc4O3)cc2CN2CCC[C@@H]2C)c(F)cn1` [Example 136], the response was half-maximal at 4.6 nM (EC50). This EC50 and that of the molecule before are within 1.5-fold of each other. The molecule `COc1cc(-c2ccc(C3CCc4ccc([C@H](C5CC5)[C@H](C)C(=O)O)cc4O3)cc2CN2CCC(F)(F)C2)c(F)cn1` (single isomer, unassigned) [Example 31] displayed a half-maximal effective concentration (EC50) of 0.95 nM.

On to `COc1cc(-c2ccc([C@@H]3CCc4ccc([C@H](C5CC5)[C@H](C)C(=O)O)cc4O3)cc2CN2CCCCC2(C)C)c(F)cn1` [Example 152], for which a half-maximal response (EC50) required 0.5 nM. Next, `COc1cc(-c2ccc(C3CCc4ccc([C@H](C5CC5)[C@H](C)C(=O)O)cc4O3)cc2CN2[C@H](C)CC[C@H]2C)c(F)cn1` (some centres unmarked) [Example 70]: 0.5 nM. Next, `COc1cc(-c2ccc([C@@H]3CCc4ccc([C@H](C5CC5)[C@H](C)C(=O)O)cc4O3)cc2CN2CCC2(C)C)c(F)cn1` [Example 157]: 4.2 nM; `COc1cc(-c2ccc(C3CCc4ccc([C@H](C5CC5)[C@H](C)C(=O)O)cc4O3)cc2CN2CC[C@@H](S(C)(=O)=O)C2)c(F)cn1` (some centres unmarked) [Example 5]: 660 nM; `COc1cc(-c2ccc(C3CCc4ccc([C@H](C5CC5)[C@H](C)C(=O)O)cc4O3)cc2CN2CCC3(CCCO3)C2)c(F)cn1` (some centres unmarked) [Example 41]: 13 nM. For the molecule `COC[C@@H]1CC[C@@H](COC)N1Cc1cc(C2CCc3ccc([C@H](C4CC4)[C@H](C)C(=O)O)cc3O2)ccc1-c1cc(OC)ncc1F` (some centres unmarked) [Example 58], the EC50 was 1.1 nM. The figure for `COc1cc(-c2ccc(C3CCc4ccc([C@H](C5CC5)[C@H](C)C(=O)O)cc4O3)cc2CN2CC[C@H](C(F)(F)F)C2)c(F)cn1` (single isomer, unassigned) [Example 30] is 1.5 nM. Next, `COc1cc(-c2ccc(C3CCc4ccc([C@H](C5CC5)[C@H](C)C(=O)O)cc4O3)cc2CN2CCCC2)c(F)cn1` (single isomer, unassigned) [Example 9a]: 3.9 nM. Next, `COc1cc(-c2ccc(C3CCc4ccc([C@H](C5CC5)[C@H](C)C(=O)O)cc4O3)cc2CN2CCCCC23CC3)c(F)cn1` (mixture of isomers) [Example 62]: 0.2 nM and 0.99 nM; `COc1cc(-c2ccc([C@@H]3CCc4ccc([C@H](C5CC5)[C@H](C)C(=O)O)cc4O3)cc2CN2CCC[C@H]2C)c(F)cn1` [Example 141]: 1.1 nM.

The values are drawn from patent publication US10968193B2, “Antidiabetic bicyclic compounds” (Merck Sharp & Dohme Corp., priority 2014, dated 2021).
